Reference: US12391679B2, “Benzamide-substituted bicyclic imidazo- and pyrazolo-fused -pyridine, -pyrimide, and -pyridazine compounds for treatment of inflammatory diseases” (ONCO3R Therapeutics BV, priority 2019, dated 2025)

Tests used:
SIK1 = molecular target: T1, SIK1 (Homo sapiens, UniProt P57059); assay: ADP-Glo kinase assay, SIK1; format: biochemical
T1 construct: purchased Carna Biosciences 02-131
Method in brief: (§1)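 Luminescent ADP-formation read-out: enzyme–substrate mix + ATP, 120 min RT; ATP depletion 40 min RT; ADP→ATP conversion with luciferase/luciferin 30 min RT. Controls: 1% DMSO (negative), 10 μM staurosporine final (positive).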

[1] = test system: LPS-induced TNFα in monocytes; assay: Monocytes assay: LPS-triggered TNFα (ELISA); format: cell-based, human; conditions: Homo sapiens, Monocyte, LPS-triggered TNFα inhibition
Experimental: This assay evaluates illustrative compounds of the invention for their inhibition of LPS-induced TNFα and LPS triggered IL-10 secretion in monocytes.
PBMCs are isolated from human blood samples (buffycoats). The buffy coat is aseptically transferred into a 50 mL Falcon tube, and diluted 1/2 in PBS. Falcon tubes are filled with 20 mL Lymphoprep™, on top of which 25 mL of the buffy coat is carefully added, tubes are centrifuged for 35 min at 400 g in temperature controlled centrifuge, without brake, at 25° C. PBMCs are aspirated from the white interface layer between sample and Lymphoprep™. PBMCs are washed five times in PBS.
PBMCs are centrifuged at 300×g for 10 min and resuspended at a density of 1.0*10^7 cells/80 μL Miltenyi buffer (PBS, pH 7.4, 1% FBS, 2 mM EDTA).
Starting from this point of the protocol all steps are performed on ice. 20 μL of CD14+ micro-beads are added per 1.0*10^7 cells, the tube is mixed and incubated for 15 min in the fridge at 4° C. Cell suspension volume is adjusted to total volume of 100 mL using Miltenyi buffer, mixed gently and subsequently centrifuged for 10 min at 300×g. Supernatant is discarded and cell pellet is resuspended in 12 mL of Miltenyi buffer.
Four LS columns are placed in the MACS Separator (magnet) from Miltenyi Biotec, and are prewet by rinsing with 3 mL of MACS buffer per column. Three mL of cell suspension is added onto the column (max 1*10^8 of labelled cells/column), and columns are subsequently washed 3 times with 3 mL of Miltenyi buffer.
The columns are removed from the magnets, and 5 mL of Miltenyi buffer are added to the column to flush out the CD14+ fraction by pushing the plunger into the column. The flushed fractions are collected in a fresh 50 mL Falcon and volume is adjusted to 30 mL using Miltenyi buffer, cells are centrifuged for 10 min at 300×g. The obtained cell pellet is resuspended in 10 mL RPMI w/o FBS, and cell density is determined using a hematologic analyser (Sysmex XS-500i).
A compound dilution plate is made in 100% DMSO by 3-fold dilution of 10 mM stock solution. An intermediate dilution plate (10× final concentration) is made by diluting the compound dilution plate 50-fold in RPMI medium.
10 μL of the 10× final concentration compound is added to the cells and incubated for 1 h at 37° C. before addition of trigger. No trigger conditions/trigger conditions are spiked with equal final DMSO concentrations of 0.2% DMSO. 10 μL of 10×LPS (final conc. 200 ng/mL) solution are added to all wells except for the ‘no trigger wells’ where 10 μL medium is added. Supernatant is collected after 4 h of LPS triggering.
The plate is then washed once with PBST (PBS+0.05% Tween20) and once with PBS followed by the addition of 100 μL of blocking buffer (1% Bovine Serum Albumin (BSA)-5% Sucrose) and plates are sealed and incubated for at least 4 h at RT. After washing the plate once with PBST and once with PBS, […]. Plates are washed twice with PBST, and once with PBS, after which 35 μL of the detection antibody is added (final concentration 0.25 μg/mL diluted in dilution buffer) and plates are incubated for at least 2 h at RT. Plates are washed twice with PBST, and once with PBS, whereafter 35 μL of Strep-HRP conjugate (0.5 μg/mL final concentration diluted in dilution buffer) is added. Plates are incubated in the dark, at RT for at least 45 min but no longer than 1 h. Plates are washed twice with PBST, and once with PBS. Thereafter, 50 μL of luminol substrate is added to each well (prepared according to manufacturer's instructions), and incubated for 5 min at RT protected from light.
To measure the inhibition of LPS induced TNFα, percentage inhibition (PIN) values are calculated for all concentrations tested, compared to controls.

SIK2 = molecular target: T2, SIK2 (Homo sapiens, UniProt Q9H0K1); assay: ADP-Glo kinase assay, SIK2; format: biochemical
T2 construct: purchased ThermoFisher Scientific PV4792
T2 sequence (Q9H0K1 whole entry): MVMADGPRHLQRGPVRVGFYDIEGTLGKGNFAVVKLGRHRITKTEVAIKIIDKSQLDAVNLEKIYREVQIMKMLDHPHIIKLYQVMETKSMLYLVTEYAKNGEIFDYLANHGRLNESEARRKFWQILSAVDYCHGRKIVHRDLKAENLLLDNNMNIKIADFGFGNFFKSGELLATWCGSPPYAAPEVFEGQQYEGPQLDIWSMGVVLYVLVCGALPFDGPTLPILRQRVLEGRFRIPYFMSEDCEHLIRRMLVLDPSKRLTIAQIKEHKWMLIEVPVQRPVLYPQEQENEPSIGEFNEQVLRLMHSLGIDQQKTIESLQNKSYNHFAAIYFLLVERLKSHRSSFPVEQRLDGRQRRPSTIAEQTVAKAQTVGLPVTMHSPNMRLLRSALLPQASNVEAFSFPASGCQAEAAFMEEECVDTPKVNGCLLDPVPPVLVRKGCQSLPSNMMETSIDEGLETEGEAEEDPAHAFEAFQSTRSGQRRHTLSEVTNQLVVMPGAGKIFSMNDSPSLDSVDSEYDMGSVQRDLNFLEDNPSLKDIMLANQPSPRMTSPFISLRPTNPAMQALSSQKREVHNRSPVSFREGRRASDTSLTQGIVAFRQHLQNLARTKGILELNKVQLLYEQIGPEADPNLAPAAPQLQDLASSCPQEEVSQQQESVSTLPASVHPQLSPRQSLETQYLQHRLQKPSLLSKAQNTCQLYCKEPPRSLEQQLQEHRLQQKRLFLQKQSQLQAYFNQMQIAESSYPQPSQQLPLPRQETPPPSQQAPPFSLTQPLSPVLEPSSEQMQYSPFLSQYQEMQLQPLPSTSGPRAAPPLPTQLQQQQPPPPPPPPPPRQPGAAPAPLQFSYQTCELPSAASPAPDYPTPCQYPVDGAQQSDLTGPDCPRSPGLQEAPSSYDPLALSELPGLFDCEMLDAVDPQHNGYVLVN
Method in brief: as §1

SIK3 = molecular target: T3, SIK3 (Homo sapiens, UniProt Q9Y2K2); assay: ADP-Glo kinase assay, SIK3; format: biochemical
T3 construct: purchased SignalChem S12-11G-100
T3 sequence (Q9Y2K2 59-365 limits assumed): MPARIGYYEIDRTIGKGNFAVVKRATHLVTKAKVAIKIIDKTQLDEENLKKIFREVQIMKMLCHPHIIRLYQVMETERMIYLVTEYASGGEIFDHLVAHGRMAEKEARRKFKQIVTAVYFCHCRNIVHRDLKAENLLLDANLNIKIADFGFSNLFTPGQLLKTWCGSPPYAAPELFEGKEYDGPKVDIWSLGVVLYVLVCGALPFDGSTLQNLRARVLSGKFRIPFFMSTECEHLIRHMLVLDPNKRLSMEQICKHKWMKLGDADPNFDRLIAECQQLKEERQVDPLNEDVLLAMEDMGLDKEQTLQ
Method in brief: as §1

T1 sequence (P57059 whole entry): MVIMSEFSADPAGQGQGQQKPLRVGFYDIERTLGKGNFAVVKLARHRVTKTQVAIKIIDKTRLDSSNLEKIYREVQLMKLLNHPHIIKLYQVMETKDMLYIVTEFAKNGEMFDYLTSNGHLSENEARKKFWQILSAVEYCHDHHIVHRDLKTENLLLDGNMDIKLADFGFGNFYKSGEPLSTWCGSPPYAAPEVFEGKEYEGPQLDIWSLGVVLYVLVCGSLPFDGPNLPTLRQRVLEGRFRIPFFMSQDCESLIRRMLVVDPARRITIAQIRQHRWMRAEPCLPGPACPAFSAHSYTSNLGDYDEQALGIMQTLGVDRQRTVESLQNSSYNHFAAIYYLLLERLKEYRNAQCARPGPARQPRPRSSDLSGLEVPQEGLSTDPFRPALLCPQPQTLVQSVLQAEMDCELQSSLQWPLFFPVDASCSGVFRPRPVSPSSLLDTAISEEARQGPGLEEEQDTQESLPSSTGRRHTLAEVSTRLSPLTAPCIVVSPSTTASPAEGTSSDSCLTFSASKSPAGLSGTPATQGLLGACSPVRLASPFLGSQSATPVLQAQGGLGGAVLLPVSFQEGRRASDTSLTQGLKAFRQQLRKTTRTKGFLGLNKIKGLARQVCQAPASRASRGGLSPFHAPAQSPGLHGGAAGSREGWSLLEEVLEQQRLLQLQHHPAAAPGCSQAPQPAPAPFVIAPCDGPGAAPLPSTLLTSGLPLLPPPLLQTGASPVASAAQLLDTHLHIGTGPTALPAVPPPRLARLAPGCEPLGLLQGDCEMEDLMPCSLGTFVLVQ

Compound | IC50 (SIK1) [nM] | EC50 [1] [nM] | IC50 (SIK2) [nM] | IC50 (SIK3) [nM]
COc1cc(-c2cnc3cc(C(C)(O)Cn4cccn4)ccn23)cc(OC(F)F)c1C(=O)NC1CC1 (centres unmarked) [Cpd 192, N-cyclopropyl-2-(difluoromethoxy)-4-[7-(1-hydroxy-1-methyl-2-pyrazol-1-yl-ethyl)imidazo[1,2-a]pyridin-3-yl]-6-methoxy-benzamide] | > 500 | 100 to 1000 | > 500 | 10 to 100
COc1cn2c(-c3cc(OC)c(C(=O)NC4CC4)c(OC(F)F)c3)cnc2cc1C1CCOCC1 [Cpd 167, N-cyclopropyl-2-(difluoromethoxy)-6-methoxy-4-(6-methoxy-7-tetrahydropyran-4-yl-imidazo[1,2-a]pyridin-3-yl)benzamide] | > 500 | 1000 to 5000 | 100 to 500 | 10 to 100
COc1cc(-c2cnc3cc(C4CN(C(C)=O)C4)c(F)cn23)cc(OC(F)F)c1C(=O)NC1CC1 [Cpd 169, 4-[7-(1-acetylazetidin-3-yl)-6-fluoro-imidazo[1,2-a]pyridin-3-yl]-N-cyclopropyl-2-(difluoromethoxy)-6-methoxy-benzamide] | > 500 | 1000 to 5000 | 100 to 500 | 10 to 100
COc1cc(-c2cnc3cc(C(C)N4CCOCC4)ccn23)cc(OC(F)F)c1C(=O)NC1CC1 (centres unmarked) [Cpd 139, N-cyclopropyl-2-(difluoromethoxy)-6-methoxy-4-[7-(1-morpholinoethyl)imidazo[1,2-a]pyridin-3-yl]benzamide] | > 500 | 1000 to 5000 | > 500 | 10 to 100
COc1cc(-c2cnc3cc(C4(O)COC4)ccn23)cc(OC(F)F)c1C(=O)N[C@@H]1C[C@@H]1F [Cpd 223, 2-(difluoromethoxy)-N-[(1R,2S)-2-fluorocyclopropyl]-4-[7-(3-hydroxyoxetan-3-yl)imidazo[1,2-a]pyridin-3-yl]-6-methoxy-benzamide] | > 500 | 100 to 1000 | 100 to 500 | 10 to 100
COc1cc(-c2cnc3cc(C(C)(C)C4CCO4)ccn23)cc(OC(F)F)c1C(=O)NC1CC1 (centres unmarked) [Cpd 229, N-cyclopropyl-2-(difluoromethoxy)-6-methoxy-4-[7-[1-methyl-1-(oxetan-2-yl)ethyl]imidazo[1,2-a]pyridin-3-yl]benzamide] | > 500 | 100 to 1000 | > 500 | 10 to 100
COc1cc(-c2cnc3cc(C4(O)CCOC4)ccn23)cc(OC(F)F)c1C(=O)NC1CC1 (centres unmarked) [Cpd 213, N-cyclopropyl-2-(difluoromethoxy)-4-[7-(3-hydroxytetrahydrofuran-3-yl)imidazo[1,2-a]pyridin-3-yl]-6-methoxy-benzamide] | > 500 | 100 to 1000 | > 500 | 10 to 100
COc1cc(-c2cnn3cc(C(C)(C)OCCN4CCOCC4)ccc23)cc(OC(F)F)c1C(=O)N[C@@H]1C[C@@H]1F [Cpd 255, 2-(difluoromethoxy)-N-[(1R,2S)-2-fluorocyclopropyl]-6-methoxy-4-[6-[1-methyl-1-(2-morpholinoethoxy)ethyl]pyrazolo[1,5-a]pyridin-3-yl]benzamide] | > 500 | 100 to 1000 | > 500 | 10 to 100
COc1cc(-c2cnc3cc(C(C)(C)C(C)O)ccn23)cc(OC)c1C(=O)NCC(F)(F)F (centres unmarked) [Cpd 62, 4-[7-(2-hydroxy-1,1-dimethyl-propyl)imidazo[1,2-a]pyridin-3-yl]-2,6-dimethoxy-N-(2,2,2-trifluoroethyl)benzamide] | > 500 | 1000 to 5000 | > 500 | 10 to 100
COc1cc(-c2cnn3cc(C(C)(C)COC4COC4)ccc23)cc(OC(F)F)c1C(=O)N[C@@H]1C[C@@H]1F [Cpd 265, 2-(difluoromethoxy)-4-[6-[1,1-dimethyl-2-(oxetan-3-yloxy)ethyl]pyrazolo[1,5-a]pyridin-3-yl]-N-[(1R,2S)-2-fluorocyclopropyl]-6-methoxy-benzamide] | > 500 | 100 to 1000 | > 500 | 10 to 100
CNC(=O)C1(c2ccc3c(-c4cc(OC)c(C(=O)N[C@@H]5C[C@@H]5F)c(OC(F)F)c4)cnn3c2)CCC1 [Cpd 273, 2-(difluoromethoxy)-N-[(1R,2S)-2-fluorocyclopropyl]-6-methoxy-4-[6-[1-(methylcarbamoyl)cyclobutyl]pyrazolo[1,5-a]pyridin-3-yl]benzamide] | > 500 | 100 to 1000 | > 500 | 10 to 100
COc1cc(-c2cnn3cc(C(C)(C)NCCO)ccc23)cc(OC(F)F)c1C(=O)N[C@@H]1C[C@@H]1F [Cpd 268, 2-(difluoromethoxy)-N-[(1R,2S)-2-fluorocyclopropyl]-4-[6-[1-(2-hydroxyethylamino)-1-methyl-ethyl]pyrazolo[1,5-a]pyridin-3-yl]-6-methoxy-benzamide] | > 500 | 100 to 1000 | > 500 | 10 to 100
COc1cc(-c2cnc3cc(C(C)(O)CC#N)ccn23)cc(OC(F)F)c1C(=O)NC1CC1 (centres unmarked) [Cpd 179, 4-[7-(2-cyano-1-hydroxy-1-methyl-ethyl)imidazo[1,2-a]pyridin-3-yl]-N-cyclopropyl-2-(difluoromethoxy)-6-methoxy-benzamide] | 0.01 to 10 | 0.1 to 100 | 0.01 to 10 | 0.01 to 10
COc1cc(-c2cnc3cc(C(C)(O)CN4CCOCC4)ccn23)cc(OC(F)F)c1C(=O)NC1CC1 (centres unmarked) [Cpd 178, N-cyclopropyl-2-(difluoromethoxy)-4-[7-(1-hydroxy-1-methyl-2-morpholino-ethyl)imidazo[1,2-a]pyridin-3-yl]-6-methoxy-benzamide] | > 500 | 100 to 1000 | > 500 | 10 to 100
CNC(=O)COCC(C)(C)c1ccc2c(-c3cc(OC)c(C(=O)N[C@@H]4C[C@@H]4F)c(OC(F)F)c3)cnn2c1 [Cpd 253, 2-(difluoromethoxy)-4-[6-[1,1-dimethyl-2-[2-(methylamino)-2-oxo-ethoxy]ethyl]pyrazolo[1,5-a]pyridin-3-yl]-N-[(1R,2S)-2-fluorocyclopropyl]-6-methoxy-benzamide] | > 500 | 100 to 1000 | > 500 | 0.01 to 10
COC(=O)NC1(c2ccc3c(-c4cc(OC)c(C(=O)N[C@@H]5C[C@@H]5F)c(OC(F)F)c4)cnn3c2)CCC1 [Cpd 272, methyl N-[1-[3-[3-(difluoromethoxy)-4-[[(1R,2S)-2-fluorocyclopropyl]carbamoyl]-5-methoxy-phenyl]pyrazolo[1,5-a]pyridin-6-yl]cyclobutyl]carbamate] | > 500 | 100 to 1000 | > 500 | 10 to 100
COc1cc(-c2cnc3cc(C4(C#N)CN(C)C4)ccn23)cc(OC(F)F)c1C(=O)NC1CC1 [Cpd 121, 4-[7-(3-cyano-1-methyl-azetidin-3-yl)imidazo[1,2-a]pyridin-3-yl]-N-cyclopropyl-2-(difluoromethoxy)-6-methoxy-benzamide] | > 500 | 1000 to 5000 | > 500 | 10 to 100
